From PubChem BioAssay AID256 (DTP/NCI, 2004)
Several values for one entry are separate records, joined by “and”; a condition that tells them apart may be missing. Equal values may be shown once. Toxic doses and inconclusive results are not listed. Rule for the calls: active = survival T/C of 150% or more; inactive = T/C below 125% in these data.

Test system: CD2F1 mice, L1210 leukemia ip, survival T/C
Experiment: NCI In Vivo Anticancer Drug Screen. Data for tumor model L1210 Leukemia (intraperitoneal) in CD2F1 (CDF1) mice
Settings: endpoint: mean survival time, higher = longer survival
How it was run: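 Activity against a transplanted murine tumor was judged by comparing the compound group with a vehicle group. The outcome in the treated animals was divided by that in the controls.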

[1] = dose: 12.5 mg/kg/injection, schedule: Q01DX009 (ip), vehicle: saline with Tween-80
[2] = dose: 25.0 mg/kg/injection, schedule: Q01DX009 (ip), vehicle: saline with Tween-80
[3] = dose: 25.0 mg/kg/injection, schedule: Q04DX003 (ip), vehicle: saline
[4] = dose: 50.0 mg/kg/injection, schedule: Q04DX003 (ip), vehicle: saline
[5] = dose: 100.0 mg/kg/injection, schedule: Q04DX003 (ip), vehicle: saline
[6] = dose: 100.0 mg/kg/injection, schedule: Q04DX003 (ip), vehicle: saline with Tween-80
[7] = dose: 200.0 mg/kg/injection, schedule: Q04DX003 (ip), vehicle: saline with Tween-80
[8] = dose: 400.0 mg/kg/injection, schedule: Q04DX003 (ip), vehicle: saline with Tween-80

Measured: T/C

CCN(CC)CCCC(C)Nc1ncnc2oc(C)c(C)c12 (stereo not given)
inactive: dose: 6.25 mg/kg/injection, schedule: Q01DX009 (ip), vehicle: saline with Tween-80 93 % of control | dose: 6.25 mg/kg/injection, schedule: Q04DX003 (ip), vehicle: saline with Tween-80 103 % of control | [1] 95 % of control | dose: 12.5 mg/kg/injection, schedule: Q04DX003 (ip), vehicle: saline with Tween-80 105 % of control | [2] 95 % of control | dose: 25.0 mg/kg/injection, schedule: Q04DX003 (ip), vehicle: saline with Tween-80 102 % of control

CCCCOC(=O)c1ccc(OC(=O)NCCC)cc1
inactive: dose: 50.0 mg/kg/injection, schedule: Q01DX009 (ip), vehicle: Klucel (hydroxypropylcellulose) (HPC) 102 % of control | dose: 100.0 mg/kg/injection, schedule: Q01DX009 (ip), vehicle: Klucel (hydroxypropylcellulose) (HPC) 108 % of control | dose: 200.0 mg/kg/injection, schedule: Q01DX009 (ip), vehicle: Klucel (hydroxypropylcellulose) (HPC) 100 % of control

CC(=O)OCC1OC(OC(C)=O)C(NC(=O)N(CCOCCCl)N=O)C(OC(C)=O)C1OC(C)=O (stereo not given)
inactive: dose: 6.25 mg/kg/injection, schedule: Q01DX001 (ip), vehicle: distilled water + Tween-80 101 % of control | dose: 12.5 mg/kg/injection, schedule: Q01DX001 (ip), vehicle: distilled water + Tween-80 101 % of control | dose: 25.0 mg/kg/injection, schedule: Q01DX001 (ip), vehicle: distilled water + Tween-80 93 % of control | dose: 50.0 mg/kg/injection, schedule: Q01DX001 (ip), vehicle: distilled water + Tween-80 93 % of control | dose: 100.0 mg/kg/injection, schedule: Q01DX001 (ip), vehicle: distilled water + Tween-80 101 % of control | dose: 200.0 mg/kg/injection, schedule: Q01DX001 (ip), vehicle: distilled water + Tween-80 97 % of control | dose: 400.0 mg/kg/injection, schedule: Q01DX001 (ip), vehicle: distilled water + Tween-80 109 % of control

N#CC(c1cccc([N+](=O)[O-])c1)C(CC(=O)c1ccccc1)c1ccccc1 (stereo not given)
inactive: dose: 100.0 mg/kg/injection, schedule: Q04DX002 (ip), vehicle: saline with Tween-80 95 % of control | dose: 200.0 mg/kg/injection, schedule: Q04DX002 (ip), vehicle: saline with Tween-80 95 % of control | dose: 400.0 mg/kg/injection, schedule: Q04DX002 (ip), vehicle: saline with Tween-80 102 % of control

CNNCCCCC(=O)NC(C)C
inactive: [3] 105 % of control | [4] 101 % of control | [5] 101 % of control

C[N+](C)(C)/N=C/C=C/c1ccccc1
inactive: [1] 104 % of control | [2] 104 % of control | dose: 50.0 mg/kg/injection, schedule: Q01DX009 (ip), vehicle: saline with Tween-80 96 % of control and 107 % of control

CCC(C)(S)C(NC(C)=O)C(=O)O (stereo not given)
inactive: [6] 98 % of control | [7] 101 % of control | [8] 104 % of control

COc1ccc(/C=N\O)cc1OC
inactive: [6] 101 % of control | [7] 98 % of control | [8] 87 % of control

C[n+]1cccc(C(=O)N/N=C/c2ccco2)c1
inactive: [5] 105 % of control | dose: 200.0 mg/kg/injection, schedule: Q04DX003 (ip), vehicle: saline 98 % of control | dose: 400.0 mg/kg/injection, schedule: Q04DX003 (ip), vehicle: saline 104 % of control

O=C(CBr)c1ccc(I)cc1
inactive: dose: 3.13 mg/kg/injection, schedule: Q04DX003 (ip), vehicle: saline 94 % of control | dose: 6.25 mg/kg/injection, schedule: Q04DX003 (ip), vehicle: saline 98 % of control | dose: 12.5 mg/kg/injection, schedule: Q04DX003 (ip), vehicle: saline 94 % of control | [3] 98 % of control | [4] 98 % of control | [5] 106 % of control
